These results are taken from patent publication US4994270A, “A54145 antibiotics and process for their production” (Eli Lilly and Company, priority 1988, dated 1991).

In brackets after ≈: the same amount, converted by molar mass. Starred links: 1 amine or outer side, 2 acyl side, 3 side chain; linkers in the order of their positions; H or OH if unused. Positions of bridges follow the written chain, without caps; N, C: chain ends. Non-standard residues stand in square brackets, D forms with d. Residues, ends and D or L forms follow the SMILES beside them. ξ: configuration not given here. *: point of attachment. ξAsp(3ξ-OMe) = COC(C(=O)O)C(N)C(=O)O; X1 = CC(CC(=O)O)C(N[*:1])C(=O)[*:2]; ξAsn(3ξ-OH) = NC(=O)C(O)C(N)C(=O)O; Decanoyl = CCCCCCCCCC(=O)*; X3 = CCC(C)CCCCCCC(=O)*; X2 = CC(C)CCCCCCC(=O)*; Sar = CNCC(=O)O Where only a bound is given, the exact number is not on record here.

One assay concerns Streptococcus pyogenes. The assay is described as follows: ED50 in experimentally infected mice. In kind it is in vivo. To be noted: mice infected with Streptococcus pyogenes; subcutaneous; doses given 1 and 4 hours postinfection. The procedure:
The A54145 antibiotics have shown in vivo antimicrobial activity against experimentally-induced infections in laboratory animals. When two doses of test compound were administered to mice experimentally infected with Streptococcus pyogenes or Staphylococcus aureus, the activity observed was measured as an ED50 value [effective dose in mg/kg to protect 50% of the test animals: see Warren Wick, et al. J. Bacteriol. 81 233-235 (1961)].

For assay [1], the system named is Staphylococcus epidermidis 222. The experiment in a line: MIC, conventional agar-dilution assay. It counts as cell-based. Here is the method:
(§1) The A54145 antibiotics inhibit the growth of pathogenic bacteria. […] The MIC's in Table IX were determined by conventional agar-dilution assays.

In assay [2] the test system is Streptococcus pneumoniae Park1. The assay is described as follows: MIC, conventional agar-dilution assay. In kind it is cell-based. Here is the method:
as §1

Assay [3] has as its system Staphylococcus epidermidis EPI1. The experiment in a line: MIC, conventional agar-dilution assay. In kind it is cell-based. Here is the method: as §1
Assay [4] relates to Streptococcus pyogenes C203. The assay is described as follows: MIC, conventional agar-dilution assay. In kind it is cell-based. The procedure:
as §1

The test system of assay [5] is Streptococcus sp. group 2041. The assay is described as follows: MIC, conventional agar-dilution assay. In kind it is cell-based. The procedure:
as §1

Assay [6] concerns Streptococcus sp. group D X66. The assay is described as follows: MIC, conventional agar-dilution assay. It counts as cell-based. The procedure:
as §1

Assay [7] concerns Staphylococcus aureus X400. The experiment in a line: MIC, conventional agar-dilution assay. In kind it is cell-based. Here is the method: as §1
Assay [8] has as its system Staphylococcus aureus V41. The experiment in a line: MIC, conventional agar-dilution assay. It counts as cell-based. Here is the method:
as §1

Assay [9] deals with Staphylococcus aureus S13E. The experiment in a line: MIC, conventional agar-dilution assay. In kind it is cell-based. The procedure:
as §1

Assay [10] concerns Staphylococcus aureus X1.1. The experiment in a line: MIC, conventional agar-dilution assay. In kind it is cell-based. Here is the method:
as §1

The nature of assay [11]: Chick growth performance test (weight gain, feed efficiency). It counts as in vivo, chicks. To be noted: for Feed/Gain Ratio / Weight Gain Amt. / Feed/Gain % Impr. / Weight Gain % Impr.: Table XIII; for Weight Gain Amt.: chicks 7-14 days of age; for Feed/Gain % Impr. / Weight Gain % Impr.: relative to the control mean. The text has this:
In the tests, the compounds were given to chicks at the concentrations indicated in the feed. The test period was the 7-day period from 7-14 days of age of the birds. Growth performance (weight gain, feed consumption and feed efficiency) was compared to that of contemporary controls.

As usually defined, the MIC is the lowest concentration found to suppress growth. High values mean a need for much substance, low ones inhibition by little substance.

With `CCCCCCCCCC(=O)NC(Cc1c[nH]c2ccccc12)C(=O)NC(CCC(=O)O)C(=O)NC(C(=O)NC1C(=O)N(C)CC(=O)NC(C)C(=O)NC(CC(=O)O)C(=O)NC(CCCCN)C(=O)NC(C(OC)C(=O)O)C(=O)NCC(=O)NC(CC(N)=O)C(=O)NC(CCC(=O)O)C(=O)NC(C(C)CC)C(=O)OC1C)C(O)C(N)=O` (stereo not shown) [Component A54145A1] (Decanoyl-WE[ξAsn(3ξ-OH)]T[Sar]ADK[ξAsp(3ξ-OMe)]GNEI; ester 4-C; configuration not given here), the “ED50 Value” in the assay on Streptococcus pyogenes is 5.0 mg/kg × 2. For the same compound, the MIC in assay [1] amounted to 4 µg/mL (≈ 2.43 µM); in assay [2] it was 4 µg/mL (≈ 2.43 µM); in [3], 4 µg/mL (≈ 2.43 µM); in [4], 1 µg/mL (≈ 0.608 µM); in [5] it was 32 µg/mL (≈ 19.5 µM); in assay [6], 16 µg/mL (≈ 9.73 µM). The MIC was 8 µg/mL (≈ 4.86 µM) in assay [7], 4 µg/mL (≈ 2.43 µM) in assay [8], 8 µg/mL (≈ 4.86 µM) in [9] and 4 µg/mL (≈ 2.43 µM) in assay [10].

In the case of `CCC(C)C1NC(=O)C(C(C)CC(=O)O)NC(=O)C(CC(N)=O)NC(=O)CNC(=O)C(C(OC)C(=O)O)NC(=O)C(CCCCN)NC(=O)C(CC(=O)O)NC(=O)C(C)NC(=O)CN(C)C(=O)C(NC(=O)C(NC(=O)C(CCC(=O)O)NC(=O)C(Cc2c[nH]c3ccccc23)NC(=O)CCCCCCC(C)C)C(O)C(N)=O)C(C)OC1=O` (stereo not shown) [Component A54145B1] (X2-WE[ξAsn(3ξ-OH)]T[Sar]ADK[ξAsp(3ξ-OMe)]GN[X1]I; ester 4-C; configuration not given here), the “Feed/Gain Ratio” value in assay [11] (5 g/ton) is listed as 1.906; in assay [11] (10 g/ton), 1.860; in [11] (20 g/ton), 1.686. The “Weight Gain Amt.” value in assay [11] (5 g/ton in feed) is listed as 326 g; in assay [11] (10 g/ton in feed), 358 g; in assay [11] (20 g/ton in feed), 448 g. In addition, the results for the “Feed/Gain % Impr.” value in [11] (5 g/ton), in assay [11] (10 g/ton) and in assay [11] (20 g/ton) were 5.3%, 7.4% and 16.2%, respectively. The “Weight Gain % Impr.” value is recorded as 3.5% in assay [11] (5 g/ton), 13.7% in assay [11] (10 g/ton) and 42.2% in [11] (20 g/ton). In addition, the minimal inhibitory concentration (MIC) in [1] is 1 µg/mL (≈ 0.603 µM); in assay [2], 2 µg/mL (≈ 1.21 µM); in assay [3], 1 µg/mL (≈ 0.603 µM); in assay [4], 0.5 µg/mL (≈ 0.301 µM); in [5], 32 µg/mL (≈ 19.3 µM); in assay [6], 8 µg/mL (≈ 4.82 µM). The MIC in [7], in assay [8], in assay [9] and in assay [10] was 2 µg/mL (≈ 1.21 µM) throughout.

With `CCCCCCCCCC(=O)NC(Cc1c[nH]c2ccccc12)C(=O)NC(CCC(=O)O)C(=O)NC(C(=O)NC1C(=O)N(C)CC(=O)NC(C)C(=O)NC(CC(=O)O)C(=O)NC(CCCCN)C(=O)NC(C(OC)C(=O)O)C(=O)NCC(=O)NC(CC(N)=O)C(=O)NC(C(C)CC(=O)O)C(=O)NC(C(C)CC)C(=O)OC1C)C(O)C(N)=O` (stereo not shown) [Component A54145B] (Decanoyl-WE[ξAsn(3ξ-OH)]T[Sar]ADK[ξAsp(3ξ-OMe)]GN[X1]I; ester 4-C; configuration not given here), the “ED50 Value” in the assay with Streptococcus pyogenes worked out at 0.94 mg/kg × 2. Moreover, the “Feed/Gain Ratio” value was determined as 1.887 in assay [11] (5 g/ton), 1.730 in [11] (10 g/ton) and 1.785 in [11] (20 g/ton). For the same compound, the “Weight Gain Amt.” value in [11] (5 g/ton in feed) is given as 341 g; in assay [11] (10 g/ton in feed) it was 392 g; in assay [11] (20 g/ton in feed), 402 g. Further, the figures for the “Feed/Gain % Impr.” value in assay [11] (5 g/ton), in [11] (10 g/ton) and in [11] (20 g/ton) were 6.3%, 14.1% and 11.3%, respectively. The figures for the “Weight Gain % Impr.” value in assay [11] (5 g/ton), in assay [11] (10 g/ton) and in [11] (20 g/ton) were 8.3%, 24.4% and 27.6%, respectively. Besides, in [11] (chickens), the “weight gains in chickens (in words)” value was “increased weight gains”. Besides, the MIC in [1] amounted to 2 µg/mL (≈ 1.21 µM); in [2], 2 µg/mL (≈ 1.21 µM); in [3], 2 µg/mL (≈ 1.21 µM); in assay [4], 0.5 µg/mL (≈ 0.301 µM); in assay [5], 8 µg/mL (≈ 4.82 µM); in [6], 4 µg/mL (≈ 2.41 µM). The MIC in [7], in assay [8], in assay [9] and in assay [10] was 2 µg/mL (≈ 1.21 µM) in each case.

Regarding `CCC(C)CCCCCCC(=O)NC(Cc1c[nH]c2ccccc12)C(=O)NC(CCC(=O)O)C(=O)NC(C(=O)NC1C(=O)N(C)CC(=O)NC(C)C(=O)NC(CC(=O)O)C(=O)NC(CCCCN)C(=O)NC(C(OC)C(=O)O)C(=O)NCC(=O)NC(CC(N)=O)C(=O)NC(C(C)CC(=O)O)C(=O)NC(C(C)C)C(=O)OC1C)C(O)C(N)=O` (stereo not shown) [Component A54145C] (X3-WE[ξAsn(3ξ-OH)]T[Sar]ADK[ξAsp(3ξ-OMe)]GN[X1]V; ester 4-C; configuration not given here), the minimal inhibitory concentration (MIC) is 1 µg/mL (≈ 0.603 µM) in assay [1]; 2 µg/mL (≈ 1.21 µM) in assay [2]; 2 µg/mL (≈ 1.21 µM) in [3]; 0.5 µg/mL (≈ 0.301 µM) in assay [4]; 4 µg/mL (≈ 2.41 µM) in [5]; 4 µg/mL (≈ 2.41 µM) in [6]. Besides, the MIC in assay [7], in assay [8], in assay [9] and in assay [10] was 2 µg/mL (≈ 1.21 µM) throughout.

For `CCC(C)CCCCCCC(=O)NC(Cc1c[nH]c2ccccc12)C(=O)NC(CCC(=O)O)C(=O)NC(C(=O)NC1C(=O)N(C)CC(=O)NC(C)C(=O)NC(CC(=O)O)C(=O)NC(CCCCN)C(=O)NC(C(OC)C(=O)O)C(=O)NCC(=O)NC(CC(N)=O)C(=O)NC(CCC(=O)O)C(=O)NC(C(C)CC)C(=O)OC1C)C(O)C(N)=O` (stereo not shown) [Component A54145D] (X3-WE[ξAsn(3ξ-OH)]T[Sar]ADK[ξAsp(3ξ-OMe)]GNEI; ester 4-C; configuration not given here), the MIC in [1] came out at 2 µg/mL (≈ 1.21 µM); in assay [2] it was 4 µg/mL (≈ 2.41 µM); in assay [3], 2 µg/mL (≈ 1.21 µM); in [4], 0.5 µg/mL (≈ 0.301 µM); in [5], 32 µg/mL (≈ 19.3 µM); in assay [6] it was 4 µg/mL (≈ 2.41 µM). For the same compound, the MIC in [7], in assay [8], in assay [9] and in [10] was 4 µg/mL (≈ 2.41 µM) throughout.

Consider `CCC(C)CCCCCCC(=O)NC(Cc1c[nH]c2ccccc12)C(=O)NC(CCC(=O)O)C(=O)NC(C(=O)NC1C(=O)N(C)CC(=O)NC(C)C(=O)NC(CC(=O)O)C(=O)NC(CCCCN)C(=O)NC(C(OC)C(=O)O)C(=O)NCC(=O)NC(CC(N)=O)C(=O)NC(C(C)CC(=O)O)C(=O)NC(C(C)CC)C(=O)OC1C)C(O)C(N)=O` (stereo not shown) [Component A54145E] (X3-WE[ξAsn(3ξ-OH)]T[Sar]ADK[ξAsp(3ξ-OMe)]GN[X1]I; ester 4-C; configuration not given here), for which the minimum inhibitory concentration (MIC) was 1 µg/mL (≈ 0.598 µM) in assay [1]; 1 µg/mL (≈ 0.598 µM) in assay [2]; 1 µg/mL (≈ 0.598 µM) in [3]; 0.25 µg/mL (≈ 0.149 µM) in [4]; 4 µg/mL (≈ 2.39 µM) in assay [5]; 2 µg/mL (≈ 1.2 µM) in [6]. Also, the minimal inhibitory concentration (MIC) turned out to be 2 µg/mL (≈ 1.2 µM) in assay [7], 2 µg/mL (≈ 1.2 µM) in [8], 2 µg/mL (≈ 1.2 µM) in assay [9] and 1 µg/mL (≈ 0.598 µM) in assay [10].

Turning to `COC(C(=O)O)C1NC(=O)C(CCCCN)NC(=O)C(CC(=O)O)NC(=O)C(C)NC(=O)CN(C)C(=O)C(NC(=O)C(NC(=O)C(CCC(=O)O)NC(=O)C(Cc2c[nH]c3ccccc23)NC(=O)CCCCCCC(C)C)C(O)C(N)=O)C(C)OC(=O)C(C(C)C)NC(=O)C(CCC(=O)O)NC(=O)C(CC(N)=O)NC(=O)CNC1=O` (stereo not shown) [Component A54145F] (X2-WE[ξAsn(3ξ-OH)]T[Sar]ADK[ξAsp(3ξ-OMe)]GNEV; ester 4-C; configuration not given here), the minimum inhibitory concentration (MIC) in assay [1] was 8 µg/mL (≈ 4.91 µM); in assay [2], 8 µg/mL (≈ 4.91 µM); in [3], 16 µg/mL (≈ 9.81 µM); in [4], 4 µg/mL (≈ 2.45 µM); in assay [5], > 32 µg/mL; in [6], 16 µg/mL (≈ 9.81 µM). Besides, the minimum inhibitory concentration (MIC) in [7], in assay [8], in assay [9] and in assay [10] was 16 µg/mL (≈ 9.81 µM) each time.
